Measured values from patent publication US8404670B2 (Sunovion Pharmaceuticals Inc., priority 2009, dated 2013).

The compounds below were run against T1, human histamine H3 receptor (Homo sapiens, UniProt Q9Y5N1) (assay: H3 GTPγS assay (SPA method), histamine H3 in vitro assay). Conditions: GTPγ[35S] binding to membranes of cells expressing human H3; antagonist mode with R-γ-Me-Histamine at EC80 (30 nM); in one embodiment HCl salts tested; read-out: Potency (functional potency as indicated by IC50).
T1 construct: host or cells: cells expressing the human H3 receptor
Format: biochemical

T1 sequence (Q9Y5N1 whole entry): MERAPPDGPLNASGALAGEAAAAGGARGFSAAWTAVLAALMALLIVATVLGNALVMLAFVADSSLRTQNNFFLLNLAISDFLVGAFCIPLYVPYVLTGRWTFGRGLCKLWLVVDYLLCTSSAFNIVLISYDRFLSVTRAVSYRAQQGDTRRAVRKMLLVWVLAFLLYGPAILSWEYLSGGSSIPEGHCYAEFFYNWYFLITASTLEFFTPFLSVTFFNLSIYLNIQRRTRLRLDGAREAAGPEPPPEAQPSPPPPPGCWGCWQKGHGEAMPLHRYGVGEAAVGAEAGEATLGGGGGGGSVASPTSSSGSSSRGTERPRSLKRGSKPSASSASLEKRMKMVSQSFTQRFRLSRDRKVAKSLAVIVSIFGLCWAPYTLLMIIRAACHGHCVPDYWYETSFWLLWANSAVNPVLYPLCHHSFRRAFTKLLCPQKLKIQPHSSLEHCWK

IC50 [nM]	Structure (SMILES)
≤ 100	N#Cc1ccc(C(=O)N2CCc3cc4nc5n(c4cc3C2)CCN(C2CCC2)CC5)cc1 [Compound 192, 4-(9-cyclobutyl-2,3,4,7,8,9,10,11-octahydro-1H-[1,4]diazepino[1′,7′:1,2]imidazo[4,5-g]isoquinoline-2-carbonyl)benzonitrile]
≤ 1000	OCc1ccc2nc3n(c2c1)CCN(C1CCC1)CC3 [Compound 110, 2-(3-cyclobutyl-2,3,4,5-tetrahydro-1H-[1,4]diazepino[1,7-a]benzimidazol-8-yl)methanol]
≤ 100	c1cnc(Nc2ccc3c(c2)nc2n3CCN(C3CCC3)CC2)cn1 [Compound 65, 3-cyclobutyl-N-(pyrazin-2-yl)-2,3,4,5-tetrahydro-1H-[1,4]diazepino[1,7-a]benzimidazol-9-amine]
≤ 100	CC(C1CCC1)N1CCc2nc3cc(-c4ccc(CN)cc4)ccc3n2CC1 (stereo not drawn) [Compound 5]
≤ 10	c1cnc(N2CCN(c3ccc4c(c3)nc3n4CCN(C4CCC4)CC3)CC2)cn1 [Compound 233, 3-cyclobutyl-8-(4-(pyrazin-2-yl)piperazin-1-yl)-2,3,4,5-tetrahydro-1H-benzo[4,5]imidazo[1,2-d][1,4]diazepine]
≥ 1000	CC(C1CCC1)N1CCc2nc3cc(-c4ccc5[nH]ccc5c4)ccc3n2CC1 (stereo not drawn) [Compound 10]
≤ 100	c1cnc(Cc2ccc3c(c2)nc2n3CCN(C3CCC3)CC2)cn1 [Compound 122, 3-cyclobutyl-8-(pyrazin-2-ylmethyl)-2,3,4,5-tetrahydro-1H-benzo[4,5]imidazo[1,2-d][1,4]diazepine]
≤ 10	FC1(F)CCN(Cc2ccc3c(c2)nc2n3CCN(C3CCC3)CC2)CC1 [Compound 160, 3-cyclobutyl-8-((4,4-difluoropiperidin-1-yl)methyl)-2,3,4,5-tetrahydro-1H-benzo[4,5]imidazo[1,2-d][1,4]diazepine]
≤ 100	FC(F)(F)c1ccc(-c2ccc3c(c2)nc2n3CCN(C3CCC3)CC2)cc1 [Compound 213, 3-cyclobutyl-8-(4-(trifluoromethyl)phenyl)-2,3,4,5-tetrahydro-1H-benzo[4,5]imidazo[1,2-d][1,4]diazepine]
≤ 1000	Cc1nn(C)c(C)c1-c1ccc2c(c1)nc1n2CCN(C2CCC2)CC1 [Compound 26]
≤ 100	NCc1ccc(-c2ccc3nc4n(c3c2)CCN(C2CCC2)CC4)cc1 [Compound 44]
≤ 100	COc1nccc(-c2ccc3c(c2)nc2n3CCN(C3CCC3)CC2)n1 [Compound 132, 3-cyclobutyl-8-(2-methoxypyrimidin-4-yl)-2,3,4,5-tetrahydro-1H-benzo[4,5]imidazo[1,2-d][1,4]diazepine]
≤ 100	c1c2c(cc3c1nc1n3CCN(C3CCC3)CC1)CCNC2 [Compound 183, 9-cyclobutyl-2,3,4,7,8,9,10,11-octahydro-1H-[1,4]diazepino[7′,1′:2,3]imidazo[4,5-g]isoquinoline]
≤ 1000	COc1ccnc(Nc2ccc3nc4n(c3c2)CCN(C2CCC2)CC4)n1 [Compound 80]
≤ 1000	c1cnc(OCc2ccc3nc4n(c3c2)CCN(C2CCC2)CC4)cn1 [Compound 113, 3-cyclobutyl-9-((pyrazin-2-yloxy)methyl)-2,3,4,5-tetrahydro-1H-[1,4]diazepino[1,7-a]benzimidazole]
≤ 1000	CC(=O)Nc1ccc(-c2ccc3c(c2)nc2n3CCN(C(C)C3CCC3)CC2)cc1 (stereo not drawn) [Compound 7]
≤ 100	N#Cc1ccc(NC(=O)c2ccc3c(c2)nc2n3CCN(C3CCC3)CC2)cc1 [Compound 61, 3-cyclobutyl-N-(4-cyanophenyl)-2,3,4,5-tetrahydro-1H-[1,4]diazepino[1,7-a]benzimidazole-9-carboxamide]
≤ 10	c1ccc(CN2CCN(c3ccc4c(c3)nc3n4CCN(C4CCC4)CC3)CC2)cc1 [Compound 224, 8-(4-benzylpiperazin-1-yl)-3-cyclobutyl-2,3,4,5-tetrahydro-1H-benzo[4,5]imidazo[1,2-d][1,4]diazepine]
≤ 10	c1cn(-c2ccc3c(c2)nc2n3CCN(C3CCC3)CC2)cn1 [Compound 66]
≥ 1000	CC(C1CCC1)N1CCc2nc3cc(Cl)ccc3n2CC1 (stereo not drawn) [Compound 11]
≤ 10	N#Cc1ccc(C(=O)N2CCN(c3ccc4c(c3)nc3n4CCN(C4CCC4)CC3)CC2)cc1 [Compound 168, 4-(4-(3-cyclobutyl-2,3,4,5-tetrahydro-1H-benzo[4,5]imidazo[1,2-d][1,4]diazepin-8-yl)piperazine-1-carbonyl)benzonitrile]
≤ 1000	c1coc(-c2ccc3nc4n(c3c2)CCN(C2CCC2)CC4)c1 [Compound 90]
≤ 100	NCc1ccc2c(c1)nc1n2CCN(C2CCC2)CC1 [Compound 140]
≤ 10	c1cc2c(cc1CN1CCOCC1)nc1n2CCN(C2CCC2)CC1 [Compound 74, 3-cyclobutyl-9-(morpholin-1-ylmethyl)-2,3,4,5-tetrahydro-1H-[1,4]diazepino[1,7-a]benzimidazole]

IC50 [nM]	Structure (SMILES)
≤ 10	FC1CCCN(Cc2ccc3c(c2)nc2n3CCN(C3CCC3)CC2)C1 (stereo not drawn) [Compound 161, 3-cyclobutyl-8-((3-fluoropiperidin-1-yl)methyl)-2,3,4,5-tetrahydro-1H-benzo[4,5]imidazo[1,2-d][1,4]diazepine]
≤ 100	CC1CCC(N2CCc3nc4cc(-c5ccc(C#N)cc5)ccc4n3CC2)C1 (racemic) [Compound 34, rac-cis/trans-4-(3-(3-methylcyclopentyl)-2,3,4,5-tetrahydro-1H-[1,4]diazepino[1,7-a]benzimidazol-9-yl)benzonitrile]
≤ 100	OC(c1ccc2c(c1)nc1n2CCN(C2CCC2)CC1)c1cnccn1 (stereo not drawn) [Compound 120, (3-cyclobutyl-2,3,4,5-tetrahydro-1H-benzo[4,5]imidazo[1,2-d][1,4]diazepin-8-yl)(pyrazin-2-yl)methanol]
≤ 1000	O=C(c1ccc2nc3n(c2c1)CCN(C1CCC1)CC3)N1CCOCC1 [Compound 84]
≤ 10	c1cnc(OCc2ccc3c(c2)nc2n3CCN(C3CCC3)CC2)cn1 [Compound 109]
≤ 10	CN1CCN(c2ccc3c(c2)nc2n3CCN(C3CCC3)CC2)CC1 [Compound 73, 3-cyclobutyl-9-(4-methylpiperazin-1-yl)-2,3,4,5-tetrahydro-1H-[1,4]diazepino[1,7-a]benzimidazole]
≤ 10	c1cc2nc3n(c2cc1CN1CCOCC1)CCN(C1CCC1)CC3 [Compound 88, 3-cyclobutyl-8-(morpholin-1-ylmethyl)-2,3,4,5-tetrahydro-1H-[1,4]diazepino[1,7-a]benzimidazole]
≤ 10	FC1CCN(c2ccc3c(c2)nc2n3CCN(C3CCC3)CC2)CC1 [Compound 179, 3-cyclobutyl-8-(4-fluoropiperidin-1-yl)-2,3,4,5-tetrahydro-1H-benzo[4,5]imidazo[1,2-d][1,4]diazepine]
≤ 100	c1cnc(N2CCc3cc4nc5n(c4cc3C2)CCN(C2CCC2)CC5)nc1 [Compound 193, 9-cyclobutyl-2-(pyrimidin-2-yl)-2,3,4,7,8,9,10,11-octahydro-1H-[1,4]diazepino[1′,7′:1,2]imidazo[4,5-g]isoquinoline]
≤ 100	N#Cc1ccc(C(=O)N2CCCC(c3ccc4c(c3)nc3n4CCN(C4CCC4)CC3)C2)cc1 (stereo not drawn) [Compound 172, 4-(3-(3-cyclobutyl-2,3,4,5-tetrahydro-1H-benzo[4,5]imidazo[1,2-d][1,4]diazepin-8-yl)piperidine-1-carbonyl)benzonitrile]
≥ 1000	N#Cc1ccc2nc3n(c2c1)CCN(C1CCC1)CC3 [Compound 82]
≤ 100	c1cc(-c2ccc3c(c2)nc2n3CCN(C3CCC3)CC2)cnn1 [Compound 127, 3-cyclobutyl-8-(pyridazin-4-yl)-2,3,4,5-tetrahydro-1H-benzo[4,5]imidazo[1,2-d][1,4]diazepine]
≥ 1000	CNC(=O)c1ccc(Oc2ccc3nc4n(c3c2)CCN(C2CCC2)CC4)nc1 [Compound 76]
≤ 100	c1cnc(Oc2ccc3c(c2)nc2n3CCN(C3CCC3)CC2)cn1 [Compound 51]
≤ 100	c1cn(-c2ccc3c(c2)nc2n3CCN(C3CCC3)CC2)nn1 [Compound 150, 3-cyclobutyl-8-(1H-1,2,3-triazol-1-yl)-2,3,4,5-tetrahydro-1H-benzo[4,5]imidazo[1,2-d][1,4]diazepine]
≤ 10	c1cc2ncc(-c3ccc4c(c3)nc3n4CCN(C4CCC4)CC3)cc2[nH]1 [Compound 200, 3-cyclobutyl-8-(1H-pyrrolo[3,2-b]pyridin-6-yl)-2,3,4,5-tetrahydro-1H-benzo[4,5]imidazo[1,2-d][1,4]diazepine]
≤ 10	c1ccc(N2CCN(c3ccc4c(c3)nc3n4CCN(C4CCC4)CC3)CC2)cc1 [Compound 229, 3-cyclobutyl-8-(4-phenylpiperazin-1-yl)-2,3,4,5-tetrahydro-1H-benzo[4,5]imidazo[1,2-d][1,4]diazepine]
≤ 10	Fc1ccc(N2CCN(c3ccc4c(c3)nc3n4CCN(C4CCC4)CC3)CC2)cc1 [Compound 231, 3-cyclobutyl-8-(4-(4-fluorophenyl)piperazin-1-yl)-2,3,4,5-tetrahydro-1H-benzo[4,5]imidazo[1,2-d][1,4]diazepine]
≤ 10	c1ccc2c(c1)ncn2-c1ccc2c(c1)nc1n2CCN(C2CCC2)CC1 [Compound 68]
≤ 100	c1cc2c(cc1-c1cnc(N3CCCC3)cn1)nc1n2CCN(C2CCC2)CC1 [Compound 91]
≤ 1000	CC(=O)Nc1ccc(-c2ccc3nc4n(c3c2)CCN(C2CCC2)CC4)cc1 [Compound 42]
≤ 10	c1ccc(CN2Cc3cc4nc5n(c4cc3C2)CCN(C2CCC2)CC5)cc1 [Compound 144, 2-benzyl-8-cyclobutyl-1,2,3,6,7,8,9,10-octahydro-[1,4]diazepino[1′,7′:1,2]imidazo[4,5-f]isoindole]
≤ 10	FC1CCN(Cc2ccc3c(c2)nc2n3CCN(C3CCC3)CC2)CC1 [Compound 159, 3-cyclobutyl-8-((4-fluoropiperidin-1-yl)methyl)-2,3,4,5-tetrahydro-1H-benzo[4,5]imidazo[1,2-d][1,4]diazepine]
≤ 1000	OCc1ccc2c(c1)nc1n2CCN(C2CCC2)CC1 [Compound 106, 2-(3-cyclobutyl-2,3,4,5-tetrahydro-1H-[1,4]diazepino[1,7-a]benzimidazol-9-yl)methanol]
